Assay results as given in paper PMC9424906 (Frontiers in Pharmacology, 2022).
pEC50: −log10 of the molar value.

Assays:
ENT1 = details: cited from earlier work
ENT2 = details: cited from earlier work
MDR1 = assay: in vitro; details: dog, MDCK-MDR1, pH 7.4
[1] = Bidirectional transport in Caco-2 monolayers; details: human, Caco-2, pH 7.4
BCRP = biological target: T1, BCRP (Homo sapiens, UniProt Q9UNQ0); assay: Bidirectional transport in MDCK-BCRP monolayers; type: in vitro ADME; details: dog, pH 7.4; MDCK-BCRP cells; read-out: Efflux ratio of positive control
T1 construct: host or cells: MDCK (BCRP-MDCK)
T1 sequence (Q9UNQ0 1-655): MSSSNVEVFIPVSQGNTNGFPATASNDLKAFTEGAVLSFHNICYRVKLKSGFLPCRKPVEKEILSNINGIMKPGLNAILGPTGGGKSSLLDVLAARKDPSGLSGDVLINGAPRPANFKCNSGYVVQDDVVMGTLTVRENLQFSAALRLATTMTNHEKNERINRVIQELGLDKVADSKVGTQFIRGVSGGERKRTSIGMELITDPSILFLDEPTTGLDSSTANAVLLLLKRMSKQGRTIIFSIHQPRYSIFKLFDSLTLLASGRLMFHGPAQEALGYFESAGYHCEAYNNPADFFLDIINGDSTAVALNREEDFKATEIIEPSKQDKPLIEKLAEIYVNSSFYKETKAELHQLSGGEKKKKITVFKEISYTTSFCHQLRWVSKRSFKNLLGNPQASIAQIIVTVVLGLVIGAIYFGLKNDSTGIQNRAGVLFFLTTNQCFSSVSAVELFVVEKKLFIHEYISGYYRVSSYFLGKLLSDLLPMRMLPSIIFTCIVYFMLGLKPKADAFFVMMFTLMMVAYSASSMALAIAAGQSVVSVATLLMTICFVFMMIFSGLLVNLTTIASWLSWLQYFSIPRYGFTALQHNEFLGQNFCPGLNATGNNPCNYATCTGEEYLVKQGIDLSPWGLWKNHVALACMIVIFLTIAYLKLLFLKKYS
Method: Caco-2 (American Type Culture Collection), MDR1-MDCK (NIH), and BCRP-MDCK (transfected by Absorption Systems) cell monolayers were grown to confluence on collagen-coated, microporous membranes in 12-well assay plates. Caco-2 cells were cultured for 27 days, MDCK-MDR1 and MDCK-BCRP cells were cultured for 8 days prior to experiments. […] The experiment was carried out in Hanks’ balanced salt solution (HBSS) containing 10 mM HEPES and 15 mM glucose at pH 7.4. HBSS in the receiver chamber also contained 1% bovine serum albumin. Cells were first pre-incubated for 0.5 h in HBSS with or without the specific inhibitor (1 µM valspodar or 0.5 µM Ko143 for MDR1 and BCRP, respectively). […] Cell monolayers were dosed on the apical side (A to B) or basolateral side (B to A) and incubated at 37°C with 5% CO2 in a humidified incubator. Samples were taken from the donor and receiver chambers at 2 h. Each experiment was performed in duplicate. All samples were assayed by LC-MS/MS. The apparent permeability (Papp) and percent recovery were calculated as described previously ([Katoh et al., 2006]; [Xia et al., 2006]; [Li et al., 2008]).

[2] = system: mild to moderate COVID-19 patients at high risk of progression to severe disease; parameters: method as in https://www.fda.gov/media/154472/download; details: ref https://www.fda.gov/media/154472/download; cited from earlier work
[3] = system: SARS-CoV-2 (USA_WA1/2020); assay: SARS-CoV-2 cytopathic effect (CPE) assay in Vero E6 cells; type: cell-based; details: Severe acute respiratory syndrome coronavirus 2, Vero C1008, 72 h, read-out: EC50, inhibition of SARS-CoV-2 CPE
[4] = system: SARS-CoV-2 (2019-nCoV/USA-WAl/2020); type: cell-based; details: EpiAirway 3D HAE tissue model, 24 h
[5] = system: EpiAirway human tracheobronchial epithelial tissues; details: EpiAirway 3D HAE tissue model
[6] = system: hospitalized COVID-19 patients; parameters: method as in Beigel et al., 2020a; details: treatment group, ref Beigel et al., 2020a; cited from earlier work
[7] = system: mild to moderate COVID-19 patients at risk of progression to severe disease; parameters: method as in Gottlieb et al., 2021; details: early 3-day course, ref Gottlieb et al., 2021; cited from earlier work

O=c1nc(NO)ccn1[C@@H]1O[C@H](CO)[C@@H](O)[C@H]1O [EIDD-1931, N-hydroxycytidine]
Inhibitor of ENT1 (ENT1): inhibitors
Inhibitor of ENT2 (ENT2): inhibitors

C[C@H]1O[C@@H](O[C@H]2[C@@H](O)C[C@H](O[C@H]3[C@@H](O)C[C@H](O[C@H]4CC[C@@]5(C)[C@H](CC[C@@H]6[C@@H]5C[C@@H](O)[C@]5(C)[C@@H](C7=CC(=O)OC7)CC[C@]65O)C4)O[C@@H]3C)O[C@@H]2C)C[C@H](O)[C@@H]1O [digoxin, reference compound]
efflux ratio at 2 h (MDR1): 110
efflux ratio at 2 h [1]: 27

Nc1nc(Cl)nc2c1ncn2[C@H]1C[C@H](O)[C@@H](CO)O1 [cladribine, reference compound]
efflux ratio at 2 h (BCRP): 153
efflux ratio at 2 h [1]: 26

CC(C)C(=O)OC[C@H]1O[C@@H](n2ccc(NO)nc2=O)[C@H](O)[C@@H]1O [EIDD-2801]
Reduction of progression to hospitalization of death compared to placebo [2]: 30%
Inhibitor of ENT1 (ENT1): inhibitors
Inhibitor of ENT2 (ENT2): inhibitors

CCC(CC)COC(=O)[C@H](C)N[P@](=O)(OC[C@H]1O[C@@](C#N)(c2ccc3c(N)ncnn23)[C@H](O)[C@@H]1O)Oc1ccccc1 [remdesivir]
pEC50 [3]: 5.13
Potency on viral titer (TCID50) at 24 h [4]: lower potency than EIDD-2801
Cytotoxicity [5]: did not exhibit any cytotoxicity
Reduction of time to recovery [6]: 33%
Reduction of progression to hospitalization or death [7]: 87%
